From ChEMBL document CHEMBL1201862, “PubChem BioAssay data set” (2004)
Active and inactive are the calls of the source.

Assays:
[1] = biological target: T1, CAAX prenyl protease 2 (Homo sapiens, UniProt Q9Y256); test: human Rce1 protease inhibitors, dose response, biochemical, yeast membranes, quenched-peptide fluorescence, cherry-pick (AID 588849)
T1 sequence (Q9Y256 whole entry): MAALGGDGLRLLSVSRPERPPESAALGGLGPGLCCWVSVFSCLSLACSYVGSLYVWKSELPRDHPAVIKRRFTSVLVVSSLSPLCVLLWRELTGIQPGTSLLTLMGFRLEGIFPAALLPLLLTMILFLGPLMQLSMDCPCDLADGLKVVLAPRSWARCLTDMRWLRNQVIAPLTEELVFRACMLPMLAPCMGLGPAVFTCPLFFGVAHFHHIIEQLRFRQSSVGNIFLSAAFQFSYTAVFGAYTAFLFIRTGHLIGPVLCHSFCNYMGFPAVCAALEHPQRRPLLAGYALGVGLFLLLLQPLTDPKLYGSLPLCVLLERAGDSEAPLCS

[2] = biological target: T2, Serine/threonine-protein phosphatase (Candida dubliniensis (strain CD36 / CBS 7987 / NCPF 3949 / NRRLY-17841) (Yeast), UniProt B9W6M3); test: Fluorescence Cell-Based Secondary Assay to Identify Inhibitors of Calcineurin. [Related pubchem assays (depositor defined):AID1979, AID2007]; format: functional
T2 sequence (B9W6M3 whole entry): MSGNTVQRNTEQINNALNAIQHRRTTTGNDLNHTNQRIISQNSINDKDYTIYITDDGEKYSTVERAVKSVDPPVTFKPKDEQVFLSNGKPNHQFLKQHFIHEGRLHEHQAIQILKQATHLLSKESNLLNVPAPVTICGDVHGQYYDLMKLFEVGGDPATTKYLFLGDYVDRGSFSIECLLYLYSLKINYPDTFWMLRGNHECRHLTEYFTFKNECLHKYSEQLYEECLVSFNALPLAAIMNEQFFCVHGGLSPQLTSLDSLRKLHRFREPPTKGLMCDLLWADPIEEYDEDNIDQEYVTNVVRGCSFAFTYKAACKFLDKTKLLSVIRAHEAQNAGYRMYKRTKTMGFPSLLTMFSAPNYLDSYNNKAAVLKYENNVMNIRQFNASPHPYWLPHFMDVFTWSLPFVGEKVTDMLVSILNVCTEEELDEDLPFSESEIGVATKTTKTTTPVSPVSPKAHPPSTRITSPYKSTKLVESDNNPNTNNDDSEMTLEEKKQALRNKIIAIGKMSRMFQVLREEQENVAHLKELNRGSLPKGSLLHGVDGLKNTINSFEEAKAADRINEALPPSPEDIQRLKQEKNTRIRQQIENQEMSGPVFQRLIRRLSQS

[3] = biological target: ATP-dependent molecular chaperone HSP82 (Candida albicans (strain WO-1) (Yeast), UniProt C4YTQ8); test: loss of DOC-induced GRE-beta-galactosidase reporter signal, dose response, Hsp90 inhibitor project, S. cerevisiae, luminescence (AID 2400); format: functional, cell-based;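 also: beta-galactosidase luminescence from glucocorticoid response element reporter as proxy for Hsp90 function; inhibitor potency where signal loss means Hsp90 inhibition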
Sequence of ATP-dependent molecular chaperone HSP82 (C4YTQ8 whole entry): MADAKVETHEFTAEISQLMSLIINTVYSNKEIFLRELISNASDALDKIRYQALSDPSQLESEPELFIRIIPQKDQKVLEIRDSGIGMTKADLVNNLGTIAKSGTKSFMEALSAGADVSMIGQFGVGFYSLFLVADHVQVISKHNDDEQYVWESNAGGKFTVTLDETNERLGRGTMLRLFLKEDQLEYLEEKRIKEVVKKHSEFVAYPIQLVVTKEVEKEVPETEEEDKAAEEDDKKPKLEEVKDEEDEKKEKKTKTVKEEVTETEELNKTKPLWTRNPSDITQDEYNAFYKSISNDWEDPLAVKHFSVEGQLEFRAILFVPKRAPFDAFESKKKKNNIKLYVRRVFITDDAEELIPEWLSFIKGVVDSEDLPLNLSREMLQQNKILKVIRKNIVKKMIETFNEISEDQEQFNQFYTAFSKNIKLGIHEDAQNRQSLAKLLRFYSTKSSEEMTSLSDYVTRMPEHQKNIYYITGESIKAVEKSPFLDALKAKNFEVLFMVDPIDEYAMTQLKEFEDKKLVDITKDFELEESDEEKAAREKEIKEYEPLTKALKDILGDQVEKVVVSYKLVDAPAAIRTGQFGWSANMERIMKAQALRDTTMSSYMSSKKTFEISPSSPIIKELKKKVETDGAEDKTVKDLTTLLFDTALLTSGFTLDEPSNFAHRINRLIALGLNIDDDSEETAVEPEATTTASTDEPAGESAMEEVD

[4] = NIH-3T3 fibroblast cytotoxicity, dose response, cytotoxicity control, cell-based, fluorescence, Alamar Blue, secondary assay (AID 2327); format: functional;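 also: NIH-3T3 mouse fibroblasts cultured with fluconazole at 8 µg/mL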
[5] = biological target: T3, Protein skinhead-1 (Caenorhabditis elegans, UniProt P34707); format: functional
T3 sequence (P34707 whole entry): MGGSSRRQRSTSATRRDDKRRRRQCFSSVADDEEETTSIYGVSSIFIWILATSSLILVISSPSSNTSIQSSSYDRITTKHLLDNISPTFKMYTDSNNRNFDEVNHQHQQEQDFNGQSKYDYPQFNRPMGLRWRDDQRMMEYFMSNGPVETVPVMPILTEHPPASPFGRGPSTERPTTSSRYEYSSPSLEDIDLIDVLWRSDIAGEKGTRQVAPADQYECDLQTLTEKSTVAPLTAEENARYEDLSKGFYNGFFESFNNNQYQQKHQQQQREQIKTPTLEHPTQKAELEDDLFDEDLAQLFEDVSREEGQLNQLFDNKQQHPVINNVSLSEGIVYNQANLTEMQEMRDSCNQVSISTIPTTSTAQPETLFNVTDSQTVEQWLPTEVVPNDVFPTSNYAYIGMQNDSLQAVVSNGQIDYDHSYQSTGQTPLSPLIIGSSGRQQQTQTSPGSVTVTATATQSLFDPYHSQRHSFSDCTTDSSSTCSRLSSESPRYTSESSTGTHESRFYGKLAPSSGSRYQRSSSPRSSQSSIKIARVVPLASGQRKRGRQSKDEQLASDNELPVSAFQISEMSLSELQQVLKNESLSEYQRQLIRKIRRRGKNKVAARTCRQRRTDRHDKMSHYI

[6] = C. albicans growth with fluconazole, confirmation, fluorescence, retest (AID 2467); format: functional, cell-based
[7] = biological target: T2, Serine/threonine-protein phosphatase; test: calcineurin pathway inhibitors in yeast reporter, dose response, S. cerevisiae, CDRE-lacZ, luminescence, secondary (AID 2388); format: functional, cell-based;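 also: yeast reporter cells carrying a calcineurin-responsive lacZ construct stimulated with calcium chloride; luminescent beta-galactosidase reporter signal in whole cells rather than isolated phosphatase activity; potency for inhibition where a drop in reporter signal means calcineurin blockade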
[8] = biological target: CAAX prenyl protease 1 (Saccharomyces cerevisiae S288c, UniProt P47154); test: Ste24 protease inhibitors, dose response, biochemical, S. cerevisiae, plate reader, cherry-pick (AID 488815)
Sequence of CAAX prenyl protease 1 (P47154 whole entry): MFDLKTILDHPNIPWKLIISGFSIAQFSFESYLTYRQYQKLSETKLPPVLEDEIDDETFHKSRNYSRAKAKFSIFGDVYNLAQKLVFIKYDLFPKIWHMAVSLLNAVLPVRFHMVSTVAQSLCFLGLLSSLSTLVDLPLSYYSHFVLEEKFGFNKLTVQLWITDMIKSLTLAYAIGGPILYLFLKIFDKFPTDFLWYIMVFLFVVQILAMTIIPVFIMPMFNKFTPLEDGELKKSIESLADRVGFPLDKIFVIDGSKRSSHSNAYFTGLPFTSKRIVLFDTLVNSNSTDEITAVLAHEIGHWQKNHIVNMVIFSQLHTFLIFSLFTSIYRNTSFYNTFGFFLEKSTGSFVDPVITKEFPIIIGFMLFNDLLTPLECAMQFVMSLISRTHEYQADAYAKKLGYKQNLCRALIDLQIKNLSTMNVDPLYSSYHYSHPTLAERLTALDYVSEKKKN

[9] = biological target: DNA repair and recombination protein RAD54-like (Homo sapiens, UniProt Q92698); test: inhibitors of human RAD54 branch migration, confirmation, biochemical, fluorescence, cherry-picked samples, dose series (AID 651657); format: functional
Sequence of DNA repair and recombination protein RAD54-like (Q92698 whole entry): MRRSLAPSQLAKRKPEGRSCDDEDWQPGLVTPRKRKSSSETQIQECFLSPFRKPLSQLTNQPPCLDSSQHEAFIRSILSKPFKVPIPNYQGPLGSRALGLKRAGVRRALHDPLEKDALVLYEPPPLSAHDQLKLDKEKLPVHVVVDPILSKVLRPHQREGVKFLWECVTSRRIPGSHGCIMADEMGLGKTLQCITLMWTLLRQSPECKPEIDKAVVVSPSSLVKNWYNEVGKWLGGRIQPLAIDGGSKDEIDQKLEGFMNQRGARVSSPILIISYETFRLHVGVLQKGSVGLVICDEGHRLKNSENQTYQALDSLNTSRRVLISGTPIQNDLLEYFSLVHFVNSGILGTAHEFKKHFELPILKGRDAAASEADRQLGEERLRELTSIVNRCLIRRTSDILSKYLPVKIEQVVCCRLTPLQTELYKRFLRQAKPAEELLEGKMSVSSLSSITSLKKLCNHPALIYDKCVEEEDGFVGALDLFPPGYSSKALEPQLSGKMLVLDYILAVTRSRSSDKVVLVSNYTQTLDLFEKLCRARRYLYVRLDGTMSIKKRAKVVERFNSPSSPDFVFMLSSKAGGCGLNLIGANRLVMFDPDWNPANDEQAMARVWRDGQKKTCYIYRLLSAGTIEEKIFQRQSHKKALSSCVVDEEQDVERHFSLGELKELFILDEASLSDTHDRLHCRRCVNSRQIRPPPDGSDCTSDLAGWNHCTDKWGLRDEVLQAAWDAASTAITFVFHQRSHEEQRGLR

[10] = biological target: T4, CAAX prenyl protease 2 (Saccharomyces cerevisiae S288c, UniProt Q03530); format: biochemical
T4 sequence (Q03530 whole entry): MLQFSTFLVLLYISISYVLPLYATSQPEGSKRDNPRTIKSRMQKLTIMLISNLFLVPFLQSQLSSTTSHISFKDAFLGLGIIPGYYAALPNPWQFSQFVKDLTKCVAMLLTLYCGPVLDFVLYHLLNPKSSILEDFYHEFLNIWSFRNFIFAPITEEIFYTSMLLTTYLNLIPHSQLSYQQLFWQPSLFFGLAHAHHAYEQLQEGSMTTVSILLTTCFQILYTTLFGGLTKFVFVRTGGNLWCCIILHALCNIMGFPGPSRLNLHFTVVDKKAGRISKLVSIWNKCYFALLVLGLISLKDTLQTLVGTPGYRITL

[11] = biological target: T5, Aryl hydrocarbon receptor (Homo sapiens, UniProt P35869); test: Luminescence-based cell-based high throughput dose response assay for activators of the Aryl Hydrocarbon Receptor (AHR). [Related pubchem assays: 2796 (Primary screen (AHR activators in singlicate)), 2845 (Confirmation screen (AHR activators in triplicate)), 434939 (Counterscreen (PXR activators in triplicate)), 2804 (Summary (AHR activators))]; format: ADME
T5 sequence (P35869 whole entry): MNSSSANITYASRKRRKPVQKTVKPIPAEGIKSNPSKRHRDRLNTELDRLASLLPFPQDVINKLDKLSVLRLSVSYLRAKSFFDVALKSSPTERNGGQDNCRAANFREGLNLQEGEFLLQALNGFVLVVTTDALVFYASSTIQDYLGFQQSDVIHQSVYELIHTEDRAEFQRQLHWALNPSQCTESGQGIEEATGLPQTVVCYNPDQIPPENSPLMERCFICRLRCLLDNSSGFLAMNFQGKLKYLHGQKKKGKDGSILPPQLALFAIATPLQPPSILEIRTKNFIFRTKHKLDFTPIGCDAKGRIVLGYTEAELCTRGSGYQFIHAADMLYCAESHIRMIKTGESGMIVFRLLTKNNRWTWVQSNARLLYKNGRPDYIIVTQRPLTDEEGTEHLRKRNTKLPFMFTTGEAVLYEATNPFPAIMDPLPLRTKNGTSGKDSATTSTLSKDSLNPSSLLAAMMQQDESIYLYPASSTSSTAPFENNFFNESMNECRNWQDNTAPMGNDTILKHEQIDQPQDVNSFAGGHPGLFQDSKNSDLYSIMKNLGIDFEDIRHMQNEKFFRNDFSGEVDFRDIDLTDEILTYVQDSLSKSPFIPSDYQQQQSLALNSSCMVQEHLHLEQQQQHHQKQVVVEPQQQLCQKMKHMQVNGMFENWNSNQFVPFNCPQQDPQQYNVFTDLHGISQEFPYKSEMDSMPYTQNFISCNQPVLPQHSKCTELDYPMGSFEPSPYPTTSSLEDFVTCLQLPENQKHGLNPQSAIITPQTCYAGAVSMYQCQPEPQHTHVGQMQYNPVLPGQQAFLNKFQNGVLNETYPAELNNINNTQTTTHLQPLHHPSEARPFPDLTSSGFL

[12] = biological target: T6, Mannose-6-phosphate isomerase (Homo sapiens, UniProt P34949); test: PMI enzyme inhibitors, confirmation, biochemical, fluorescence intensity (AID 1535)
T6 sequence (P34949 whole entry): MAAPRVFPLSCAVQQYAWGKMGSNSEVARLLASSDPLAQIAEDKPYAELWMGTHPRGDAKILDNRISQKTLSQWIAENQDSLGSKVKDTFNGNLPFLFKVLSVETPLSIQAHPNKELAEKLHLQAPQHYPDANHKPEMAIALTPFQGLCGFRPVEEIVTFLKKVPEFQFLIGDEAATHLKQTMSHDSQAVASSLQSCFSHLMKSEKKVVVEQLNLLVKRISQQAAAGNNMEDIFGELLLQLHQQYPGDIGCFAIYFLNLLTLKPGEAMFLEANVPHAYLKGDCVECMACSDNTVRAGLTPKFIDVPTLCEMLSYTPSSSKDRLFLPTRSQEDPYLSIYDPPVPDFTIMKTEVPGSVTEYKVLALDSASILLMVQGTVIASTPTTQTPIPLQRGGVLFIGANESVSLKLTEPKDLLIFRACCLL

[13] = biological target: Phosphomannomutase 2 (Homo sapiens, UniProt O15305); test: Counter screen SAR assay for PMM2 inhibitors via a fluorescence intensity assay. [Related pubchem assays (depositor defined):AID1545, AID1574]
Sequence of Phosphomannomutase 2 (O15305 whole entry): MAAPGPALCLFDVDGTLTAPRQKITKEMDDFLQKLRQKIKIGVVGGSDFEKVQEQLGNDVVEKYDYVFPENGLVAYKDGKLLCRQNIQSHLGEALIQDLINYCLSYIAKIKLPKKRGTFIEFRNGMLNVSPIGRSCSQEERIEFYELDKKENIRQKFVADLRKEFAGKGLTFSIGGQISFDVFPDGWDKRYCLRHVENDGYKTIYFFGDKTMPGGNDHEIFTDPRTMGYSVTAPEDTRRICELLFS

[14] = biological target: Phosphoethanolamine/phosphocholine phosphatase (Homo sapiens, UniProt Q8TCT1); test: SAR assay for compounds that inhibit PHOSPHO1. [Related pubchem assays (depositor defined):AID1545, AID1565, AID1574]
Sequence of Phosphoethanolamine/phosphocholine phosphatase (Q8TCT1 whole entry): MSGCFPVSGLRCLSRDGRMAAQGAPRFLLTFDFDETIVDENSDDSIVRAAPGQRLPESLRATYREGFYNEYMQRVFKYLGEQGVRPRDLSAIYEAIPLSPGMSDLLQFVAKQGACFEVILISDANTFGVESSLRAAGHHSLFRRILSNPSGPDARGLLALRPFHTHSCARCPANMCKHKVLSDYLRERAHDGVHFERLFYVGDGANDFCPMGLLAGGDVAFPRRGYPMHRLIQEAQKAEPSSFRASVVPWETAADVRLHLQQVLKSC

[15] = growth induction of Burl-1 ts yeast mutant, dose response, counter-screen for SUMOylation pathway inhibitor project, whole organism, S. cerevisiae, luminescence (AID 463199); format: functional
[16] = system: HEK293; test: NOD1 signaling inhibitors, primary screen, cell-based, luminescence, uHTS (AID 1578); format: functional; settings: Homo sapiens
[17] = system: Streptococcus; test: Group A Streptococcus viability loss, dose response, counter-screen for streptokinase expression inhibitor project, luminescence, BacTiterGlo (AID 1915); format: functional, organism-based;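 also: potency for reduction of bacterial viability or growth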
[18] = system: HEK293; test: NOD2 signaling inhibitors in MDP-stimulated cells, cell-based, uHTS, luminescence (AID 2001); format: functional; settings: Homo sapiens
[19] = system: HEK293; test: cells; format: functional, cell-based; settings: Homo sapiens
[20] = biological target: T7, Streptokinase A (Streptococcus pyogenes serotype M1, UniProt P10520); test: S. pyogenes streptokinase expression inhibitors, potency, dose response, plasminogen activation absorbance, OD405 (AID 1914); format: functional, Streptococcus pyogenes M1 GAS;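 also: secreted streptokinase activity via plasminogen activation per viability signal from cell pellet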
T7 sequence (P10520 whole entry): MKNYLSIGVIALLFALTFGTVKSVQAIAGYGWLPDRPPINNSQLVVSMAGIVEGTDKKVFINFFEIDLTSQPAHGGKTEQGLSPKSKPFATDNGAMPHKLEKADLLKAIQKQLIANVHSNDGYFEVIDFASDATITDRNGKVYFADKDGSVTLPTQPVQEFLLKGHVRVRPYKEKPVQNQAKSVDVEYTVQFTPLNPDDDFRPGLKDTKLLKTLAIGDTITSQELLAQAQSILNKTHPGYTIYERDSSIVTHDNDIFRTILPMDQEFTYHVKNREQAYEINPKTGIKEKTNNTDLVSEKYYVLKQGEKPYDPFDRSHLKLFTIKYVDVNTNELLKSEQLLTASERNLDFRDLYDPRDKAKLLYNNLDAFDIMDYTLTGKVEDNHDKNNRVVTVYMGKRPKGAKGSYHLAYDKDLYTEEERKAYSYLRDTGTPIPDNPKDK

[21] = system: HEK293; test: cells; format: functional, cell-based; settings: Homo sapiens; remark: listed apart in the source
[22] = biological target: Nucleotide-binding oligomerization domain-containing protein 2 (Homo sapiens, UniProt Q9HC29); test: NOD2 signaling inhibitors, cell-based, luminescence, uHTS, HEK293 (AID 1566); format: functional
Sequence of Nucleotide-binding oligomerization domain-containing protein 2 (Q9HC29 whole entry, the tested form may be a part): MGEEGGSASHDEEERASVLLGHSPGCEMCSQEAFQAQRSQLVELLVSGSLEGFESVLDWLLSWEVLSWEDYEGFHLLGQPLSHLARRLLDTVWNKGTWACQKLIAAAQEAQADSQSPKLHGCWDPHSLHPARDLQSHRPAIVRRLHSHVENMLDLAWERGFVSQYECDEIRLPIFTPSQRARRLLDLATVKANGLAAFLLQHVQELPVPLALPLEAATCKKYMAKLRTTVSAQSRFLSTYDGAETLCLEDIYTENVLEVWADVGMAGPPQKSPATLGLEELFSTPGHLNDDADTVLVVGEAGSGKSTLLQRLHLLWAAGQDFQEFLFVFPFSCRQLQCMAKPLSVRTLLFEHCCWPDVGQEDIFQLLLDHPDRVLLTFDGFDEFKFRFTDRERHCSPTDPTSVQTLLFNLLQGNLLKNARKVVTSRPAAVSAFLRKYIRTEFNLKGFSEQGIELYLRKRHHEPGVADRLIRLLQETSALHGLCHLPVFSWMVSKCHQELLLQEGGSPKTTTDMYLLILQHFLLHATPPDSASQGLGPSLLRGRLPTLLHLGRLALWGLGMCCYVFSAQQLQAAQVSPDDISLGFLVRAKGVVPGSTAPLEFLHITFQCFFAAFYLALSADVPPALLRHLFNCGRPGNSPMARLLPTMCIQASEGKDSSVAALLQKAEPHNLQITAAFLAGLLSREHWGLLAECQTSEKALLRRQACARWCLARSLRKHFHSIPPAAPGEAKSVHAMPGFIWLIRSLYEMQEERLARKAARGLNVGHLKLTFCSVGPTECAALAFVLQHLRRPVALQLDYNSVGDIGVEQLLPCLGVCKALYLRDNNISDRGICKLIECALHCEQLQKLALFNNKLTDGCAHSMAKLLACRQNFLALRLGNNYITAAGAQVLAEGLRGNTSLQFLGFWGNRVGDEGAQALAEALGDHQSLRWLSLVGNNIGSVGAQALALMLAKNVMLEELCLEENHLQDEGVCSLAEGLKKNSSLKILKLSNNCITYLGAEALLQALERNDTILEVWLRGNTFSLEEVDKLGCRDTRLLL

[23] = system: Streptococcus sp. 'group A'; test: growth inhibition of control SK(-) GAS strain, dose response, counter-screen for streptokinase expression inhibitor project, luminescence, kanamycin, BacTiterGlo, confirmation (AID 1900); format: functional, organism-based
[24] = system: HEK293; test: cells; format: functional, cell-based; settings: Homo sapiens; remark: listed apart in the source
[25] = biological target: Cytochrome P450 3A4 (Homo sapiens, UniProt P08684);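 also: CYP3A4 tested as one member of a cytochrome P450 panel screen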
Sequence of Cytochrome P450 3A4 (P08684 whole entry): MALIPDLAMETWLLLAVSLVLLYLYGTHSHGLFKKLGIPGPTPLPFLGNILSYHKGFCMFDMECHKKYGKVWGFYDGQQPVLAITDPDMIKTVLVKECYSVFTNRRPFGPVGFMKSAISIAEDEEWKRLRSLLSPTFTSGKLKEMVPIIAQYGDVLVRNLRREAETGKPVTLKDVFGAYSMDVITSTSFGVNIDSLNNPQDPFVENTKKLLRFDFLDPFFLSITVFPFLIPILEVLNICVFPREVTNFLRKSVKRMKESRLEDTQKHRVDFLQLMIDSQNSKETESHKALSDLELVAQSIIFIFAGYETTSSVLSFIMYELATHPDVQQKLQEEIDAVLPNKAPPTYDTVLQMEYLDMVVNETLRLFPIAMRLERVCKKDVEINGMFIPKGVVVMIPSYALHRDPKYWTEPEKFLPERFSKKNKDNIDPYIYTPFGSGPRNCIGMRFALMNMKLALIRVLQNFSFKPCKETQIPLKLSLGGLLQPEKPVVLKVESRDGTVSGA

[26] = biological target: Cytochrome P450 2D6 (Homo sapiens, UniProt P10635);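 also: CYP2D6 member of a cytochrome P450 panel assay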
Sequence of Cytochrome P450 2D6 (P10635 whole entry): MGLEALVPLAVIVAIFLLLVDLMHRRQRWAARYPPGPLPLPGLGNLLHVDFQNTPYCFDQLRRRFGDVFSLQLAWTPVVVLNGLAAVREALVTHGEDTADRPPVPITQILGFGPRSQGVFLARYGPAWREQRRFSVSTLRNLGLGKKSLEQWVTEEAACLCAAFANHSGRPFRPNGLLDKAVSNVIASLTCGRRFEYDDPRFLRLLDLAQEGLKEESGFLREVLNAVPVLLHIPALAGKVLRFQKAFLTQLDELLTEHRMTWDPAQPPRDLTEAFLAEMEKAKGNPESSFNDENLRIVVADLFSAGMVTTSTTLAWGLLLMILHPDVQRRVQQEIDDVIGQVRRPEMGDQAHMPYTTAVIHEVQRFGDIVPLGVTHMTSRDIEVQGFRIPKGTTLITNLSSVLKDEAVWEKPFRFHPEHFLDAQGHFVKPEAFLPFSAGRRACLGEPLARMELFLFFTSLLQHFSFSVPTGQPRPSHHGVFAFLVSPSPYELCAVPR

[27] = biological target: Cytochrome P450 2C19 (Homo sapiens, UniProt P33261); test: Cytochrome panel assay with activity outcomes. Panel member name: p450-cyp2c19 Compounds with AC50 equal or less than 10 uM are considered active; format: functional; settings: read-out: AC50
Sequence of Cytochrome P450 2C19 (P33261 whole entry): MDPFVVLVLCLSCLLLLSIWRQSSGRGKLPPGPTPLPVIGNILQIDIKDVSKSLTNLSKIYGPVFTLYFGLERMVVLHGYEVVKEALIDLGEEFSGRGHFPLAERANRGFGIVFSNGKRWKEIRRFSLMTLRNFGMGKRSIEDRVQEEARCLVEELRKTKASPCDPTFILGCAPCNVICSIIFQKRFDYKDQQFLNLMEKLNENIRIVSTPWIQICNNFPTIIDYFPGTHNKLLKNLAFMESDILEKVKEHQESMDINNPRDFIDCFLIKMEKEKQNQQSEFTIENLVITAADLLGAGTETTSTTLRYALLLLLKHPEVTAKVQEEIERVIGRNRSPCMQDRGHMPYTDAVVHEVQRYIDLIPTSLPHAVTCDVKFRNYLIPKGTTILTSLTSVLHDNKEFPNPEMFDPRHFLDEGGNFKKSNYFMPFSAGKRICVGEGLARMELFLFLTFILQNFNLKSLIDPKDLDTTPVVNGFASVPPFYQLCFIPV

SMILES: O=C(Nc1sc2c(c1C(=O)c1ccc(Cl)cc1)CCCC2)c1cccnc1
- AC50 [1]: 24.3 µM (active)
- EC50 [2]: 27.6 µM (inconclusive)
- EC50 [3]: 28.2 µM (active)
- EC50 [4]: > 160 µM (inactive)
- IC50 [5]: > 100 µM (inactive)
- EC50 [6]: 0.18 µM (active)
- EC50 [7]: > 180 µM (inactive)

SMILES: CN1CCN(CCCNC(=O)c2cc3c(-c4ccc(Cl)cc4)nn(C)c3s2)CC1
- AC50 [8]: 6.07 µM (active)
- AC50 [1]: 15.8 µM (active)
- AC50 [9]: 33.6 µM (active)
- AC50 [10]: 7.05 µM (active)
- EC50 [11]: 0.483 µM (active)

SMILES: CCN(CC)CCOC(=O)c1ccc(-n2sc3ccccc3c2=O)cc1
- IC50 [12]: 24.1 µM (active)
- IC50 [13]: 26.9 µM (active)
- IC50 [14]: 0.755 µM (active)

SMILES: OCCc1c[nH]c2cc(F)ccc12
- AC50 [15]: 73.3 µM (active)

SMILES: CCCCCCc1cc2cc(C(=O)OCC)c(=O)oc2cc1O
- EC50 [16]: 5.81 µM (active)
- EC50 [17]: > 150 µM (not active)
- IC50 [18]: 6.52 µM (inactive)
- IC50 [19]: > 20 µM (inactive)
- EC50 [20]: 12.8 µM (active)
- IC50 [21]: 15.8 µM (active)
- EC50 [22]: 12.6 µM (active)
- EC50 [23]: 10.8 µM (active)
- IC50 [24]: 7.71 µM (active)

SMILES: CCc1ccc(C(CC(=O)c2ccc(Cl)cc2)C(=O)O)cc1 (stereo not drawn)
- AC50 [25]: inconclusive
- AC50 [26]: inconclusive
- AC50 [27]: 0.00562 µM (inconclusive)
